Data taken from patent publication US20240280561A1, “COMPOSITIONS AND METHODS FOR TREATING AND/OR IDENTIFYING AN AGENT FOR TREATING INTESTINAL CANCERS” (Dana-Farber Cancer Institute, Inc., priority 2022, published 2024).

Experiments:
[1] = test system: SOX9 expression in HT-115 cells; test: SOX9 protein expression in CRC cells treated with WNT and TGF-β pathway agents (immunoblot); assay type: cell-based, human; details: CRC cells (HT-115)
Description: AXIN2, SOX9 and […] (loading control) protein expression in HT-115 (Apc Mutant) cells treated with DMSO, rWNT3A or indicated concentrations of WNT-inhibitor ICG-001 by immunoblot (middle panel). SOX9 and β-actin (loading control) protein expression in HT-115 cells expressing GFP or dominant-negative (dn) TCF4 (right panel); S.E.=short exposure, L.E.=long exposure. […] Protein expression of SOX9 and β-actin (loading control) in HT-115 cells treated with indicated concentration of rTGF-β or TGF-β inhibitor.
Immunoblot analysis was performed as previously described (Wong et al. (2018) Nature medicine 24: 968-977). Briefly, cells were lysed in RIPA buffer supplemented with a protease inhibitor cocktail (Roche). Whole cell extracts were resolved by SDS-PAGE, transferred to PVDF membranes, and probed with indicated primary antibodies. Bound antibodies were detected with horseradish peroxidase (HRP)-conjugated secondary antibodies and chemiluminescent HRP substrate.
The following agents were used: recombinant WNT3A as a Wnt activator and ICG-001 as a Wnt pathway inhibitor, all of which were employed at indicated concentrations and durations.
To examine whether SOX9 is regulated by stem cell and differentiation cues, the impact of the WNT and BMP/TGF-β signaling pathways on SOX9 expression, respectively, was evaluated. […]

[2] = test system: PROM1 intronic enhancer reporter in HEK293T cells; test: PROM1 enhancer GFP reporter assay; assay type: cell-based; details: GFP reporter transiently transfected into HEK293T cells
Description: A 537-bp region in intron 1 of PROM1 (hg19, ch4:[…], negative strand) was identified as a putative SOX9-regulated enhancer based on V5-SOX9 and H3K27Ac CHIP data. PCR-amplified products or gene blocks (gBlocks, IDT) consisting of the putative PROM1 enhancer, a minimal promoter, eGFP, and PGK-hygromycin resistance cassette was cloned into the lentiviral LV 1-5 backbone vector using Gibson modular assembly platform (Akama-Garren et al. (2016) Sci Rep 6: 16836). Briefly, PROM1 enhancer was generated as a gBlock by adding the following primer sequencing to the 5′ and 3′ end of the 537-bp region, respectively: 5′→3′ Forward (site 1), […] and 5′→3′ Reverse, […] (site 2); the minimal promoter was PCR amplified from the 7TFP WT CDH1 reporter plasmid using the following primer sequences: 5′→3′ Forward (includes site 2), […] and 5′→3′ Reverse, AGGCCTCGGGATTcctagg[…] (includes site 3); eGFP was generated by adding the following primer sequences to the 5′ and 3′ end, respectively: 5′→3′ Forward (site 3), AAACCGCTGTTcctaggAATCCCGAGGCCT and 5′→3′ Reverse, GACCCGACATTagcgctACAGCTTAAGCGG (site 4); and PGK-hygro was PCR amplified from plenti-PGK-hygro-gateway destination vector using the following primers: 5′→3′ Forward (includes site 4), GACCCGACATTagcgct[…] […]
To investigate the precise mechanism of PROM1 activation, V5-SOX9 and H3K27Ac CHIP-seq data were analyzed. […]

## O=C1[C@H](Cc2ccc(O)cc2)N2C(=O)CCN(C(=O)NCc3ccccc3)[C@H]2CN1Cc1cccc2ccccc12 [ICG-001]
[1]
  SOX9 expression: reduced SOX9 expression

B1: recombinant WNT3A: recombinant WNT3A used as a Wnt activator (protein, UniProt P56704 19-352, looked up)
Protein Wnt-3a: SYPIWWSLAVGPQYSSLGSQPILCASIPGLVPKQLRFCRNYVEIMPSVAEGIKIGIQECQHQFRGRRWNCTTVHDSLAIFGPVLDKATRESAFVHAIASAGVAFAVTRSCAEGTAAICGCSSRHQGSPGKGWKWGGCSEDIEFGGMVSREFADARENRPDARSAMNRHNNEAGRQAIASHMHLKCKCHGLSGSCEVKTCWWSQPDFRAIGDFLKDKYDSASEMVVEKHRESRGWVETLRPRYTYFKVPTERDLVYYEASPNFCEPNPETGSFGTRDRTCNVSSHGIDGCDLLCCGRGHNARAERRREKCRCVFHWCCYVSCQECTRVYDVHTCK
[2]
  PROM1 enhancer reporter activity, stimulation: 3 fold
